Laboratory results published in ChEMBL document CHEMBL1122827 (1985).
Calls of active or inactive are those of the source. The calls are words filed in the database; no cut-off is given here. Where a SMILES comes first, the peptide text is derived from it. The star is where a group is joined. Mob = COc1ccc(C*)cc1; Bn = c1ccc(C*)cc1

Columns and labels:
Format in all cases: functional
Oryctolagus cuniculus [1] = organism: Oryctolagus cuniculus; assay: The concentration required to produce 50% of the maximal effect in rabbit mesenteric vein(RMV) at 10e-4 M; Inactive
Cavia porcellus [2] = organism: Cavia porcellus; assay: The concentration required to produce 50% of the maximal effect in guinea pig trachea(GPT) at 10e-4 M; Inactive
Cavia porcellus [3] = organism: Cavia porcellus; assay: The concentration required to produce 50% of the maximal effect in guinea pig ileum(GPI)
Cavia porcellus [4] = organism: Cavia porcellus; assay: Intrinsic activity in guinea pig ileum(GPI) was determined
Cavia porcellus [5] = organism: Cavia porcellus; assay: Relative affinity in guinea pig ileum(GPI) was determined
Cavia porcellus [6] = organism: Cavia porcellus; assay: Relative affinity in guinea pig trachea(GPT) was determined
Oryctolagus cuniculus [7] = organism: Oryctolagus cuniculus; assay: Relative affinity in rabbit mesenteric vein(RMV) was determined
Cavia porcellus [8] = organism: Cavia porcellus; assay: Intrinsic activity in guinea pig trachea(GPT) was determined
Oryctolagus cuniculus [9] = organism: Oryctolagus cuniculus; assay: Intrinsic activity in rabbit mesenteric vein(RMV) was determined
Cavia porcellus [10] = organism: Cavia porcellus; assay: The concentration required to produce 50% of the maximal effect in guinea pig trachea(GPT)
Oryctolagus cuniculus [11] = organism: Oryctolagus cuniculus; assay: The concentration required to produce 50% of the maximal effect in rabbit mesenteric vein(RMV)

CC(C)C[C@H]1NC(=O)CNC(=O)[C@@H](Cc2ccccc2)NC(=O)[C@H](Cc2ccccc2)NC(=O)[C@@H](N)CSSC[C@H](C(N)=O)NC1=O
pD2 (Oryctolagus cuniculus [1]): inactive | pD2 (Cavia porcellus [2]): inactive

CC(C)C[C@@H]1NC(=O)CNC(=O)[C@H](Cc2ccccc2)NC(=O)[C@H](Cc2ccccc2)NC(=O)[C@@H](N)CSSC[C@@H](C(N)=O)NC1=O
pD2 (Cavia porcellus [3]): 4.83 | Alpha E (Cavia porcellus [4]): 0.7 | AR (Cavia porcellus [5]): 0.02

COc1ccc(CSC[C@H](N)C(=O)N[C@@H](CCC(N)=O)C(=O)N[C@@H](Cc2ccccc2)C(=O)N[C@@H](Cc2ccccc2)C(=O)NCC(=O)N[C@@H](CC(C)C)C(=O)N[C@@H](CSCc2ccccc2)C(N)=O)cc1 (H-C(Mob)QFFGLC(Bn)-NH2)
AR (Cavia porcellus [6]): 3 | AR (Oryctolagus cuniculus [7]): 2.8 | Alpha E (Cavia porcellus [8]): 0.8 | pD2 (Cavia porcellus [3]): 6.37 | Alpha E (Oryctolagus cuniculus [9]): 0.4 | Alpha E (Cavia porcellus [4]): 1.2 | pD2 (Cavia porcellus [10]): 5.22 | pD2 (Oryctolagus cuniculus [11]): 5.98 | AR (Cavia porcellus [5]): 0.8
